Experiments:
MDA-MB-435 = assay: panel of 60 human tumor cell lines, growth inhibition (Melanoma); settings: MDA-MB-435
SK-MEL-2 = assay: as above; settings: SK-MEL-2
SF-539 = assay: panel of 60 human tumor cell lines, growth inhibition (CNS Cancer); settings: SF-539
U251 = assay: as above; settings: U251
HCT-116 = assay: panel of 60 human tumor cell lines, growth inhibition (Colon Cancer); settings: HCT-116
HT29 = assay: as above; settings: HT29
786-0 = assay: panel of 60 human tumor cell lines, growth inhibition (Renal Cancer); settings: 786-0
A498 = assay: as above; settings: A498
SN12C = assay: as above
MDA-MB-231/ATCC = assay: panel of 60 human tumor cell lines, growth inhibition (Breast Cancer); settings: MDA-MB-231/ATCC
OVCAR-5 = assay: panel of 60 human tumor cell lines, growth inhibition (Ovarian Cancer); settings: OVCAR-5
NCI/ADR-RES = assay: as above
PC-3 = assay: panel of 60 human tumor cell lines, growth inhibition (Prostate Cancer); settings: PC-3
DU-145 = assay: as above; settings: DU-145
HOP-62 = assay: panel of 60 human tumor cell lines, growth inhibition (Non-Small Cell Lung Cancer); settings: HOP-62
NCI-H322M = assay: as above
NCI-H460 = assay: as above; settings: NCI-H460

SMILES: C=C1C(=O)O[C@H]2[C@H]1CC/C(COC(=O)NCCO)=C\CC[C@@]1(C)O[C@@H]21 [JVM 2-50]
- Percent Growth (MDA-MB-435; Log10 Concentration −4.0): −84%
- Percent Growth (MDA-MB-435; Log10 Concentration −5.0): 40%
- Percent Growth (MDA-MB-435; Log10 Concentration −6.0): 91%
- Percent Growth (MDA-MB-435; Log10 Concentration −7.0): 96%
- Percent Growth (MDA-MB-435; Log10 Concentration −8.0): 91%
- GI50 (MDA-MB-435; NCI five dose): 6.37 µM
- TGI (MDA-MB-435; NCI five dose): 2.10E−5
- Percent Growth (SK-MEL-2; Log10 Concentration −4.0): −54%
- Percent Growth (SK-MEL-2; Log10 Concentration −5.0): 83%
- Percent Growth (SK-MEL-2; Log10 Concentration −6.0): 115%
- Percent Growth (SK-MEL-2; Log10 Concentration −7.0): 116%
- Percent Growth (SK-MEL-2; Log10 Concentration −8.0): 106%
- GI50 (SK-MEL-2; NCI five dose): 18.5 µM
- TGI (SK-MEL-2; NCI five dose): 4.18E−5
- Percent Growth (SF-539; Log10 Concentration −4.0): −85%
- Percent Growth (SF-539; Log10 Concentration −5.0): 54%
- Percent Growth (SF-539; Log10 Concentration −6.0): 93%
- Percent Growth (SF-539; Log10 Concentration −7.0): 95%
- Percent Growth (SF-539; Log10 Concentration −8.0): 95%
- GI50 (SF-539; NCI five dose): 10.8 µM
- TGI (SF-539; NCI five dose): 2.46E−5
- Percent Growth (U251; Log10 Concentration −4.0): −26%
- Percent Growth (U251; Log10 Concentration −5.0): 94%
- Percent Growth (U251; Log10 Concentration −6.0): 91%
- Percent Growth (U251; Log10 Concentration −7.0): 95%
- Percent Growth (U251; Log10 Concentration −8.0): 97%
- GI50 (U251; NCI five dose): 23.3 µM
- TGI (U251; NCI five dose): 6.08E−5
- Percent Growth (HCT-116; Log10 Concentration −4.0): −75%
- Percent Growth (HCT-116; Log10 Concentration −5.0): 15%
- Percent Growth (HCT-116; Log10 Concentration −6.0): 90%
- Percent Growth (HCT-116; Log10 Concentration −7.0): 96%
- Percent Growth (HCT-116; Log10 Concentration −8.0): 93%
- GI50 (HCT-116; NCI five dose): 3.43 µM
- TGI (HCT-116; NCI five dose): 1.48E−5
- CC50 (HCT-116; read-out: LC50, NCI five dose): 53.2 µM
- Percent Growth (HT29; Log10 Concentration −4.0): −47%
- Percent Growth (HT29; Log10 Concentration −5.0): 57%
- Percent Growth (HT29; Log10 Concentration −6.0): 109%
- Percent Growth (HT29; Log10 Concentration −7.0): 104%
- Percent Growth (HT29; Log10 Concentration −8.0): 99%
- GI50 (HT29; NCI five dose): 11.7 µM
- TGI (HT29; NCI five dose): 3.55E−5
- Percent Growth (786-0; Log10 Concentration −4.0): −74%
- Percent Growth (786-0; Log10 Concentration −5.0): 59%
- Percent Growth (786-0; Log10 Concentration −6.0): 97%
- Percent Growth (786-0; Log10 Concentration −7.0): 97%
- Percent Growth (786-0; Log10 Concentration −8.0): 91%
- GI50 (786-0; NCI five dose): 11.7 µM
- TGI (786-0; NCI five dose): 2.78E−5
- Percent Growth (A498; Log10 Concentration −4.0): −25%
- Percent Growth (A498; Log10 Concentration −5.0): 58%
- Percent Growth (A498; Log10 Concentration −6.0): 60%
- Percent Growth (A498; Log10 Concentration −7.0): 68%
- Percent Growth (A498; Log10 Concentration −8.0): 74%
- GI50 (A498; NCI five dose): 12.4 µM
- TGI (A498; NCI five dose): 5.01E−5
- Percent Growth (SN12C; Log10 Concentration −4.0): −12%
- Percent Growth (SN12C; Log10 Concentration −5.0): 73%
- Percent Growth (SN12C; Log10 Concentration −6.0): 31%
- Percent Growth (SN12C; Log10 Concentration −7.0): 91%
- Percent Growth (SN12C; Log10 Concentration −8.0): 94%
- GI50 (SN12C; NCI five dose): 18.6 µM
- TGI (SN12C; NCI five dose): 7.22E−5
- Percent Growth (MDA-MB-231/ATCC; Log10 Concentration −4.0): −66%
- Percent Growth (MDA-MB-231/ATCC; Log10 Concentration −5.0): 63%
- Percent Growth (MDA-MB-231/ATCC; Log10 Concentration −6.0): 99%
- Percent Growth (MDA-MB-231/ATCC; Log10 Concentration −7.0): 91%
- Percent Growth (MDA-MB-231/ATCC; Log10 Concentration −8.0): 100%
- GI50 (MDA-MB-231/ATCC; NCI five dose): 12.7 µM
- TGI (MDA-MB-231/ATCC; NCI five dose): 1.10E−5
- Percent Growth (OVCAR-5; Log10 Concentration −4.0): −54%
- Percent Growth (OVCAR-5; Log10 Concentration −5.0): 68%
- Percent Growth (OVCAR-5; Log10 Concentration −6.0): 85%
- Percent Growth (OVCAR-5; Log10 Concentration −7.0): 91%
- Percent Growth (OVCAR-5; Log10 Concentration −8.0): 89%
- GI50 (OVCAR-5; NCI five dose): 14 µM
- TGI (OVCAR-5; NCI five dose): 1.59E−5
- Percent Growth (NCI/ADR-RES; Log10 Concentration −4.0): 16%
- Percent Growth (NCI/ADR-RES; Log10 Concentration −5.0): 105%
- Percent Growth (NCI/ADR-RES; Log10 Concentration −6.0): 106%
- Percent Growth (NCI/ADR-RES; Log10 Concentration −7.0): 113%
- Percent Growth (NCI/ADR-RES; Log10 Concentration −8.0): 108%
- GI50 (NCI/ADR-RES; NCI five dose): 41.5 µM
- TGI (NCI/ADR-RES; NCI five dose): >1.00E−4
- Percent Growth (PC-3; Log10 Concentration −4.0): −21%
- Percent Growth (PC-3; Log10 Concentration −5.0): 94%
- Percent Growth (PC-3; Log10 Concentration −6.0): 97%
- Percent Growth (PC-3; Log10 Concentration −7.0): 93%
- Percent Growth (PC-3; Log10 Concentration −8.0): 98%
- GI50 (PC-3; NCI five dose): 24.1 µM
- TGI (PC-3; NCI five dose): 6.57E−5
- Percent Growth (DU-145; Log10 Concentration −4.0): −92%
- Percent Growth (DU-145; Log10 Concentration −5.0): 60%
- Percent Growth (DU-145; Log10 Concentration −6.0): 107%
- Percent Growth (DU-145; Log10 Concentration −7.0): 106%
- Percent Growth (DU-145; Log10 Concentration −8.0): 108%
- GI50 (DU-145; NCI five dose): 11.6 µM
- TGI (DU-145; NCI five dose): 2.47E−5
- Percent Growth (HOP-62; Log10 Concentration −4.0): 9%
- Percent Growth (HOP-62; Log10 Concentration −5.0): 88%
- Percent Growth (HOP-62; Log10 Concentration −6.0): 92%
- Percent Growth (HOP-62; Log10 Concentration −7.0): 90%
- Percent Growth (HOP-62; Log10 Concentration −8.0): 88%
- GI50 (HOP-62; NCI five dose): 30.4 µM
- TGI (HOP-62; NCI five dose): >1.00E−4
- Percent Growth (NCI-H322M; Log10 Concentration −4.0): 32%
- Percent Growth (NCI-H322M; Log10 Concentration −5.0): 109%
- Percent Growth (NCI-H322M; Log10 Concentration −6.0): 105%
- Percent Growth (NCI-H322M; Log10 Concentration −7.0): 109%
- Percent Growth (NCI-H322M; Log10 Concentration −8.0): 105%
- GI50 (NCI-H322M; NCI five dose): 58.8 µM
- TGI (NCI-H322M; NCI five dose): >1.00E−4
- Percent Growth (NCI-H460; Log10 Concentration −4.0): 8%
- Percent Growth (NCI-H460; Log10 Concentration −5.0): 98%
- Percent Growth (NCI-H460; Log10 Concentration −6.0): 98%
- Percent Growth (NCI-H460; Log10 Concentration −7.0): 100%
- Percent Growth (NCI-H460; Log10 Concentration −8.0): 100%
- GI50 (NCI-H460; NCI five dose): 34 µM
- TGI (NCI-H460; NCI five dose): >1.00E−4

From US9469650B2, “Melampomagnolide B derivatives” (BOARD OF TRUSTEES OF THE UNIVERSITY OF ARKANSAS, priority 2013, dated 2016)
